Where a SMILES comes first, the peptide text is derived from it. [ ]: non-standard residue; d: D form. dPhe(4-Cl) = N[C@H](Cc1ccc(Cl)cc1)C(=O)O; d2Nal = N[C@H](Cc1ccc2ccccc2c1)C(=O)O; dCit = NC(=O)NCCC[C@@H](N)C(=O)O; d3Pal = N[C@H](Cc1cccnc1)C(=O)O; pGlu = O=C1CC[C@@H](C(=O)O)N1
How the values were obtained:
Primate GnRH-2 receptor [1] = experiment: Inhibition of GnRH-2-induced c-fos-luc luciferase activity in cells expressing Primate GnRH-2 receptor; assay type: cell-based; settings: treated at the same time as GnRH-2
Procedure: (§1) Complimentary DNA (cDNA) for a Primate GnRH-2 receptor was obtained from a CV-1 cell genome. […] Plasmids having Primate GnRH-2 receptors where transfected into CV-1 cells. To assay the activity of the receptor, c-fos-luc where a luciferase gene is fused with a c-fos promoter was co-transfected as a probe gene. After 48 hours from transfection, the cells were treated with GnRH-2 agonists and then the activity of luciferase was assayed (Seong et al., Endocrinology vol 144 2003, 454-466).
In the same manner as in 2-3 above, Primate GnRH-2 receptors were co-transfected along with c-fos-luc reporter genes, and after 48 hours, GnRH-2 and GnRH-2 antagonists were treated thereinto at the same time and then the effect of GnRH-2 antagonists was observed.

rat GnRHR [2] = molecular target: T1, rat GnRHR (Rattus norvegicus, UniProt P30969); experiment: Inhibition of GnRH-1-induced IP production in GH3 cells expressing rat GnRHR; assay type: cell-based
T1 construct: expressed in transfected cells; host or cells: GH3 cells, retroviral infection
T1 sequence (P30969 1-327): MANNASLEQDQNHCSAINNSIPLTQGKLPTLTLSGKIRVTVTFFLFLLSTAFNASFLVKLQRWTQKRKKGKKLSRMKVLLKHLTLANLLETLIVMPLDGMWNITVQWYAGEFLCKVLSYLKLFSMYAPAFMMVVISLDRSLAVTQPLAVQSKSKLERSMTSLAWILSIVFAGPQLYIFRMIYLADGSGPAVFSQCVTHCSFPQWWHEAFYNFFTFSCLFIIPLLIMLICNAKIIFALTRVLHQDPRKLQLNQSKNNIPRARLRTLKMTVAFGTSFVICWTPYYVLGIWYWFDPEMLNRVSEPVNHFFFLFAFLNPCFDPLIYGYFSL
Procedure: GH3 cell lines were obtained from the Cell Line Bank at the Cancer Research Center, Seoul National University College of Medicine, located in Seoul, Republic of Korea. The GH3 cell lines were infected with retroviruses comprising genes encoding bfGnRHR-1, bfGnRHR-2, and bfGnRHR-3 which are bullfrog GnRH receptors, and rat GnRHR, and cell lines expressing each of these receptors were obtained. The GH3 cells expressing bfGnRHR-1, bfGnRHR-2, bfGnRHR-3, and rat GnRHR were cultured on 12-well plates. After 24 hours, the cells were cultured again for 24 hours in a media containing no inositol, to which H^3-myoinositol was added. The resultant cells were washed with buffer A (140 mM NaCl, 20 mM HEPES, 4 mM KCl, 8 mM D-Glucose, 1 mM MgCl2, 1 mM CaCl2, 1 mg/ml BSA) and then cultured in buffer A containing 10 mM LiCl at 37°C. for 30 minutes. Thereafter, they were treated with GnRH having a suitable concentration, cultured at 37° C. for another 30 minutes, and then the media was eliminated. The cells were treated with 10 mM of ice-cold formic acid to terminate the reaction, and the cell extracts were mixed with Dowex anionic exchange resins. These resins were washed with distilled water, IP was extracted with 1 M ammonium formate/0.1 M formic acid, and cpm (count per minute) was determined.
However, Trptorelix-1 could reduce the production of IP induced by 1 nM GnRH-2, in a concentration-dependent manner (FIG. 6a to FIG. 6c).

rat GnRHR [3] = molecular target: T1, rat GnRHR; experiment: Inositol phosphate (IP) production in GH3 cells expressing rat GnRHR; assay type: cell-based; settings: for EC50: GH3 cells, 30 min, given as log EC50 (negative values)
From the text: The GnRH receptor, a membrane protein connected with the G protein, activates the G protein when activated by a ligand, and the activated G protein activates phospholipase C and thereby the synthesis of inositol phosphate (IP), which is the second transmitter in cells, is increased. Based on this principle, the activity of a receptor can be investigated by measuring the amount of IP within cells. GH3 cell lines were obtained from the Cell Line Bank at the Cancer Research Center, Seoul National University College of Medicine, located in Seoul, Republic of Korea. The GH3 cell lines were infected with retroviruses comprising genes encoding […]-2, and bfGnRHR-3 which are bullfrog GnRH receptors, and rat GnRHR, and cell lines expressing each of these receptors were obtained. The GH3 cells expressing […]-3, and rat GnRHR were cultured on 12-well plates. After 24 hours, the cells were cultured again for 24 hours in a media containing no inositol, to which H^3-myoinositol was added. […] Thereafter, they were treated with GnRH having a suitable concentration, cultured at 37° C. for another 30 minutes, and then the media was eliminated. The cells were treated with 10 mM of ice-cold formic acid to terminate the reaction, and the cell extracts were mixed with Dowex anionic exchange resins. These resins were washed with distilled water, IP was extracted with 1 M ammonium formate/0.1 M formic acid, and cpm (count per minute) was determined. The GH3 cell lines were infected with retroviruses comprising genes encoding […]-2, and bfGnRHR-3 which are bullfrog GnRH receptors, and rat GnRHR, and cell lines expressing each of these receptors were obtained.

TSU-Pri cells = experiment: Binding of radiolabeled GnRH to TSU-Pri prostate cancer cells; parameters: species or system human; settings: room temperature, 6 hours
Procedure: TSU-Pri, which is one of the prostate cancer cell lines, was cultured along with the radiolabeled I^125GnRH-1 and I^125GnRH-2. […] The radiolabeled GnRH and the cells were cultured at room temperature for 6 hours, and then washed with PBS (phosphate-buffered saline) several times to eliminate the unbound GnRH. Thereafter, the cells were isolated and radioactivity from the cells was measured using a y-counter.

rat GnRHR [4] = molecular target: T1, rat GnRHR; experiment: I125-GnRH-2 competitive ligand-receptor binding, membranes of GH3 cells expressing rat GnRHR; settings: competition with I125-GnRH-2, 4 °C, 16 hours; read-out: Binding affinity (log IC50 value) (converted)
Procedure: To determine the binding affinity between GnRH and GnRH receptors, GnRH-2 was radiolabeled with I^125. […] After 48 hours, the cells were homogenized to obtain cellular membranes, which were then dissolved in binding buffer (40 mM Tris, pH 7.4, 2 mM MgCl2). 20 μg of membrane proteins were reacted with I^125-GnRH-2 at 4° C. for 16 hours. […] After the reaction was completed, 1^125-GnRH-2 bound to the receptors was filtered using a Brandel harvester, and cpm was measured using a y-counter.

Primate GnRH-2 receptor [5] = experiment: c-fos-luc luciferase activation in CV-1 cells expressing Primate GnRH-2 receptor; assay type: cell-based
Procedure: as §1
Of the GnRH-2 receptors, [D-Ala^6]GnRH-2 performed excellently, showing effects about 3 times that of a wild-type ligand, GnRH-2. […] When analogs where the 5th, 7th, and 8th amino acids of [D-Ala^6]GnRH-2 are substituted were used, it was observed that their effects were weaker than [D-Ala^6]GnRH-2, and therefore it can be seen that it is important to maintain His, Trp, and Tyr that are found at the 5th, 7th, and 8th positions of GnRH-2 as they are (FIG. 3b).

bfGnRHR-1 = experiment: Inositol phosphate (IP) production in GH3 cells expressing bfGnRHR-1; assay type: cell-based, bullfrog
From the text: The GnRH receptor, a membrane protein connected with the G protein, activates the G protein when activated by a ligand, and the activated G protein activates phospholipase C and thereby the synthesis of inositol phosphate (IP), which is the second transmitter in cells, is increased. Based on this principle, the activity of a receptor can be investigated by measuring the amount of IP within cells. GH3 cell lines were obtained from the Cell Line Bank at the Cancer Research Center, Seoul National University College of Medicine, located in Seoul, Republic of Korea. The GH3 cell lines were infected with retroviruses comprising genes encoding […]-2, and bfGnRHR-3 which are bullfrog GnRH receptors, and rat GnRHR, and cell lines expressing each of these receptors were obtained. The GH3 cells expressing […]-3, and rat GnRHR were cultured on 12-well plates. After 24 hours, the cells were cultured again for 24 hours in a media containing no inositol, to which H^3-myoinositol was added. […] Thereafter, they were treated with GnRH having a suitable concentration, cultured at 37° C. for another 30 minutes, and then the media was eliminated. […] These resins were washed with distilled water, IP was extracted with 1 M ammonium formate/0.1 M formic acid, and cpm (count per minute) was determined. […]

Ac-D2Nal-(4Cl)D-Phe-D-3Pal-Ser-Tyr-DCit-Trp-Leu-Pro-DAla-NH2 (Ac-[d2Nal][dPhe(4-Cl)][d3Pal]SY[dCit]WLP[dA]-NH2; SMILES CC(=O)N[C@H](Cc1ccc2ccccc2c1)C(=O)N[C@H](Cc1ccc(Cl)cc1)C(=O)N[C@H](Cc1cccnc1)C(=O)N[C@@H](CO)C(=O)N[C@@H](Cc1ccc(O)cc1)C(=O)N[C@H](CCCNC(N)=O)C(=O)N[C@@H](Cc1c[nH]c2ccccc12)C(=O)N[C@@H](CC(C)C)C(=O)N1CCC[C@H]1C(=O)N[C@H](C)C(N)=O) [Trptorelix-3]
effect on luciferase activity induced by GnRH-2 (Primate GnRH-2 receptor [1]): no effect

CC(=O)N[C@H](Cc1ccc2ccccc2c1)C(=O)N[C@H](Cc1ccc(Cl)cc1)C(=O)N[C@H](Cc1cccnc1)C(=O)N[C@@H](CO)C(=O)N[C@@H](Cc1c[nH]cn1)C(=O)N[C@H](CCCNC(N)=O)C(=O)N[C@@H](Cc1c[nH]c2ccccc12)C(=O)N[C@@H](Cc1ccc(O)cc1)C(=O)N1CCC[C@H]1C(=O)N[C@H](C)C(N)=O [Trptorelix-2, Ac-D2Nal-(4Cl)D-Phe-D-3Pal-Ser-His-DCit-Trp-Tyr-Pro-DAla-NH2] (Ac-[d2Nal][dPhe(4-Cl)][d3Pal]SH[dCit]WYP[dA]-NH2)
effect on luciferase activity induced by GnRH-2 (Primate GnRH-2 receptor [1]): reduced in a concentration-dependent manner

CC(=O)N[C@H](Cc1ccc2ccccc2c1)C(=O)N[C@H](Cc1ccc(Cl)cc1)C(=O)N[C@H](Cc1cccnc1)C(=O)N[C@@H](CO)C(=O)N[C@@H](Cc1ccc(O)cc1)C(=O)N[C@H](CCCNC(N)=O)C(=O)N[C@@H](CC(C)C)C(=O)N[C@@H](CCCNC(=N)N)C(=O)N1CCC[C@H]1C(=O)N[C@H](C)C(N)=O [Cetrorelix, Ac-D-2Nal-(4Cl)-D-Phe-D-3Pal-Ser-Tyr-D-Cit-Leu-Arg-Pro-D-Ala-NH2, reference compound] (Ac-[d2Nal][dPhe(4-Cl)][d3Pal]SY[dCit]LRP[dA]-NH2)
IC50 (rat GnRHR [2]): 0.00933 nM
effect on luciferase activity induced by GnRH-2 (Primate GnRH-2 receptor [1]): no effect

NC(=O)CNC(=O)[C@@H]1CCCN1C(=O)[C@H](Cc1ccc(O)cc1)NC(=O)[C@H](Cc1c[nH]c2ccccc12)NC(=O)CNC(=O)[C@H](Cc1c[nH]cn1)NC(=O)[C@H](CO)NC(=O)[C@H](Cc1c[nH]c2ccccc12)NC(=O)[C@H](Cc1c[nH]cn1)NC(=O)[C@@H]1CCC(=O)N1 [GnRH-2] ([pGlu]HWSHGWYPG-NH2)
EC50 (rat GnRHR [3]): 8.71 nM
sensitivity compared with GnRH-1 (rat GnRHR [3]; rat GnRHR): a sensitivity lower than 10-fold
binding of the radiolabeled ligand to TSU-Pri cells (TSU-Pri cells): binding with cells was observed
effect of unradiolabeled competitor on binding of radiolabeled GnRH-2 to TSU-Pri cells (TSU-Pri cells): the binding was reduced
IC50 (rat GnRHR [4]): 832 nM

p-Glu-His-Trp-Ser-His-D-Lys-Trp-Tyr-Pro-Gly-NH2 ([pGlu]HWSH[dK]WYPG-NH2; SMILES NCCCC[C@@H](NC(=O)[C@H](Cc1c[nH]cn1)NC(=O)[C@H](CO)NC(=O)[C@H](Cc1c[nH]c2ccccc12)NC(=O)[C@H](Cc1c[nH]cn1)NC(=O)[C@@H]1CCC(=O)N1)C(=O)N[C@@H](Cc1c[nH]c2ccccc12)C(=O)N[C@@H](Cc1ccc(O)cc1)C(=O)N1CCC[C@H]1C(=O)NCC(N)=O) [[D-Lys^6]GnRH-2]
effect reduced, fold, as compared with GnRH-2 (Primate GnRH-2 receptor [5]): about 1.5 fold

NC(=O)CNC(=O)[C@@H]1CCCN1C(=O)[C@H](Cc1ccc(O)cc1)NC(=O)[C@H](Cc1c[nH]c2ccccc12)NC(=O)[C@@H](Cc1c[nH]c2ccccc12)NC(=O)[C@H](Cc1c[nH]cn1)NC(=O)[C@H](CO)NC(=O)[C@H](Cc1c[nH]c2ccccc12)NC(=O)[C@H](Cc1c[nH]cn1)NC(=O)[C@@H]1CCC(=O)N1 [[D-Trp^6]GnRH-2, reference compound] ([pGlu]HWSH[dW]WYPG-NH2)
concentration activating bfGnRHR-1, fold lower than GnRH-2 (bfGnRHR-1): similar
EC50 (rat GnRHR [3]): 12 nM
effect reduced, fold, as compared with GnRH-2 (Primate GnRH-2 receptor [5]): ~1.2 fold
IC50 (rat GnRHR [4]): 97.7 nM

[D-Ala^6]GnRH-1: the agonist of GnRH-1 [reference compound]
sensitivity as compared with GnRH-2 (Primate GnRH-2 receptor [5]): very low sensitivity
